The source of these data is patent US10414811B2, “Protease-resistant lipidated GLP-1 analogs” (MEDIMMUNE LIMITED, priority 2015, dated 2019).

Assay type in all cases: cell-based
For experiment [1], the target named is T1, human GLP-1 receptor (GLP-1R) (Homo sapiens, UniProt P43220).
T1 construct: expressed in transfected cells
In words: cAMP assay, human GLP-1R cells. Summed up:
(§1)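 Peptide-stimulated cAMP measured by two-step HTRF after a 30 min room-temperature incubation with receptor-expressing cells (hGLP-1R, hGIPR at 1×10^5 cells/ml; hGCGR at 2×10^5 cells/ml). Duplicate dilutions; EC50 from 4-parameter logistic fit of % Delta F.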

Experiment [2] has as its target T2, human glucagon receptor (GCGR) (Homo sapiens, UniProt P47871).
T2 construct: expressed in transfected cells
In words: cAMP assay, human GCGR cells. Summed up:
as §1

For experiment [3], the target named is T3, human glucose-dependent insulinotropic peptide receptor (GIPR) (Homo sapiens, UniProt P48546).
T3 construct: expressed in transfected cells
T3 sequence (P48546 22-466): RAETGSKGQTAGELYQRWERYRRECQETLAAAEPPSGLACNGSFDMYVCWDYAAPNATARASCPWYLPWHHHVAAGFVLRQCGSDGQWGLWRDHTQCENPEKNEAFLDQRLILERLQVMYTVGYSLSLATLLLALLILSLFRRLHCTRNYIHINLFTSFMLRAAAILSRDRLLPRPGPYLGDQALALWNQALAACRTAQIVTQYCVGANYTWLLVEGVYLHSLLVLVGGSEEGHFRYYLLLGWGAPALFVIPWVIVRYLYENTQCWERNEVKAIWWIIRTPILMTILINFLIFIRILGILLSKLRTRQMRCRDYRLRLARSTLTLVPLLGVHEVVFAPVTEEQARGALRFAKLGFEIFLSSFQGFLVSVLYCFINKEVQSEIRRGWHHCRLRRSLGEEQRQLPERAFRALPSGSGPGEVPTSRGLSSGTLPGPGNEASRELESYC
In words: cAMP assay, human GIPR cells. Summed up: as §1

The target in a further experiment is T4, GLP-1R (INS1e assay) (Rattus norvegicus, UniProt P32301).
T4 construct: endogenous in cells; host or cells: INS-1E cells
T4 sequence (P32301 22-463): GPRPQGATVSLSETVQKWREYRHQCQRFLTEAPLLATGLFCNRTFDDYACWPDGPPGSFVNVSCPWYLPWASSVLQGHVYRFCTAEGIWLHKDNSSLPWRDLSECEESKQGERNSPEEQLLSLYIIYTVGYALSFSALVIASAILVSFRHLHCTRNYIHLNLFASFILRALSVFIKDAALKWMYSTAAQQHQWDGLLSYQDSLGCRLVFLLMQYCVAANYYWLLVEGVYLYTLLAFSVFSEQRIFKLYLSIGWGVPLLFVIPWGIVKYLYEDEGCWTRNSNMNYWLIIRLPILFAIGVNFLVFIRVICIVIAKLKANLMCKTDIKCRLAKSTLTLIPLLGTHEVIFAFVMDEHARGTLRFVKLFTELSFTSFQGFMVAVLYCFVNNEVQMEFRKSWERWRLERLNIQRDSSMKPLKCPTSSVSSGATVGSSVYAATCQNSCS
In words: INS1e assay, cAMP activity at GLP-1R. Summed up:
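It pairs cAMP-d2 acceptor with anti-cAMP cryptate donor, both prepared 1/20 in conjugate/lysis buffer, applied as a two-step protocol.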

The mark [4] stands for this setting: cAMP assay, first determination (n1), read-out: Primary assay EC50 GLP-1R n1.
Setting [5] is: cAMP assay, second determination (n2), read-out: Primary assay EC50 GLP-1R n2.
[6] abbreviates: mean of n1 and n2, read-out: Mean pM GLP-1R.
Setting [7] is: cAMP assay, first determination (n1), read-out: Primary assay EC50 Gluc-R (n1).
The mark [8] stands for this setting: cAMP assay, second determination (n2), read-out: Primary assay EC50 Gluc-R (n2).
The mark [9] stands for this setting: cAMP assay, first determination (n1), read-out: Primary assay EC50 GIP-R (n1).
[10] abbreviates: cAMP assay, second determination (n2), read-out: Primary assay EC50 GIP-R (n2).
The mark [11] stands for this setting: mono-lipidated peptides, mean of n1 and n2, read-out: INS1e assay EC50 Mean pM GLP-1R.
Where [12] appears, read: mono-lipidated peptides, replicate n1, read-out: INS1e assay EC50 GLP-1R n1.
[13] abbreviates: mono-lipidated peptides, replicate n2, read-out: INS1e assay EC50 GLP-1R n2.

Read-outs that look alike come from different tables or passages of the source. Numbered stars: 1 amine (or outer) side, 2 acyl side, 3 side chain; on linkers, the order of the positions; unused ones are H or OH. Square brackets hold non-standard residues; d marks the D form. Side chains are listed from the residue outwards. Peptide text beside a SMILES is read from it. * marks the point of attachment. C18 diacid = O=C(O)CCCCCCCCCCCCCCCCC(=O)*; γGlu = O=C(O)[C@H](CCC(=O)[*:2])N[*:1]; αMeF = C[C@](N)(Cc1ccccc1)C(=O)O; αMeK = C[C@](N)(CCCCN)C(=O)O; Lauroyl = CCCCCCCCCCCC(=O)*; αMeS = C[C@](N)(CO)C(=O)O; AEEA = NCCOCCOCC(=O)O; Aib = CC(C)(N)C(=O)O

T1 sequence (P43220 24-463): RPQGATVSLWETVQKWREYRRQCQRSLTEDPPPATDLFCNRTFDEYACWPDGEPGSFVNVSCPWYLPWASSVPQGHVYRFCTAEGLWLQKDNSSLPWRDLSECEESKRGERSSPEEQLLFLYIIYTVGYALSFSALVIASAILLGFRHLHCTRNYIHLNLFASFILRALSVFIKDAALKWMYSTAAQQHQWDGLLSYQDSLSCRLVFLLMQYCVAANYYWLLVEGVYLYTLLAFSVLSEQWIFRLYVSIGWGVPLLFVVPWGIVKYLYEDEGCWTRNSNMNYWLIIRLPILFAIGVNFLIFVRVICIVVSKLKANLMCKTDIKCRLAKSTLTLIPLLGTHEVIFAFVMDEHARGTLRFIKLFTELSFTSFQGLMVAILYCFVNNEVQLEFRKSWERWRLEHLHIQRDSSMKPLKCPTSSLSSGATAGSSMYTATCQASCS
T2 sequence (P47871 26-477): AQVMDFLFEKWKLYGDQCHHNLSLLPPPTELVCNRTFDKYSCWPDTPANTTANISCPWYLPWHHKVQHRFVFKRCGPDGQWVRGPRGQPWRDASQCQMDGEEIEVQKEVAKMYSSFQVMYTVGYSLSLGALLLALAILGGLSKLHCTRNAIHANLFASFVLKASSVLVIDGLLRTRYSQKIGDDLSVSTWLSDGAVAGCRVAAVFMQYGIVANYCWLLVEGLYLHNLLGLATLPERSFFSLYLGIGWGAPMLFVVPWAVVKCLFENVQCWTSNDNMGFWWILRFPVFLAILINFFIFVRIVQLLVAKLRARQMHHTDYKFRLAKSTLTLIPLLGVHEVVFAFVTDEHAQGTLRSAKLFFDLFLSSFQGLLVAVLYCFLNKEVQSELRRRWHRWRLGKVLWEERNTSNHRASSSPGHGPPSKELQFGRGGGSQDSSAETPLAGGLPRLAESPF

In the case of `CCCCCCCCCCCCCCCC(=O)N[C@@H](CCC(=O)NCCCC[C@H](NC(=O)[C@@H](NC(=O)[C@@H](NC(=O)[C@](C)(Cc1ccccc1)NC(=O)[C@H](C)NC(=O)[C@@H](NC(=O)[C@](C)(Cc1ccccc1)NC(=O)[C@H](CCC(=O)O)NC(=O)[C@](C)(CCCCN)NC(=O)[C@H](C)NC(=O)[C@H](C)NC(=O)[C@H](CCC(=O)O)NC(=O)CNC(=O)[C@H](CCC(=O)O)NC(=O)[C@H](CC(C)C)NC(=O)[C@](C)(Cc1ccccc1)NC(=O)[C@H](CO)NC(=O)[C@](C)(CO)NC(=O)[C@@H](NC(=O)[C@H](CC(=O)O)NC(=O)[C@H](CO)NC(=O)[C@@H](NC(=O)[C@](C)(Cc1ccccc1)NC(=O)[C@H](CO)NC(=O)CNC(=O)[C@H](CCC(=O)O)NC(=O)C(C)(C)NC(=O)[C@@H](N)Cc1c[nH]cn1)[C@@H](C)O)C(C)C)[C@@H](C)CC)C(C)C)C(C)C)C(=O)NCC(=O)NCC(N)=O)C(=O)O` [compound 72], the EC50 in experiment [1] (setting [4]) is 46 pM; in experiment [1] (setting [5]), 52 pM; in experiment [1] (setting [6]) it was 49 pM; in experiment [2] (setting [7]) it was at least 28 nM; in experiment [2] (setting [8]) it was at least 28 nM; in experiment [3] (setting [9]), at least 28 nM. In addition, the EC50 is at least 28 nM in experiment [3] (setting [10]), 6160 pM on GLP-1R (INS1e assay) (setting [11]), 4260 pM at GLP-1R (INS1e assay) (setting [12]) and 8070 pM on GLP-1R (INS1e assay) (setting [13]).
For the compound `CC[C@H](C)[C@H](NC(=O)[C@](C)(Cc1ccccc1)NC(=O)[C@H](CCC(=O)O)NC(=O)[C@](C)(CCCCN)NC(=O)[C@H](C)NC(=O)[C@H](C)NC(=O)[C@H](CCC(=O)O)NC(=O)CNC(=O)[C@H](CCC(=O)O)NC(=O)[C@H](CC(C)C)NC(=O)[C@](C)(Cc1ccccc1)NC(=O)[C@H](CO)NC(=O)[C@](C)(CO)NC(=O)[C@H](CCCCNC(=O)COCCOCCNC(=O)COCCOCCNC(=O)CC[C@H](NC(=O)CCCCCCCCCCCCCCCCC(=O)O)C(=O)O)NC(=O)[C@H](CC(=O)O)NC(=O)[C@H](CO)NC(=O)[C@@H](NC(=O)[C@](C)(Cc1ccccc1)NC(=O)[C@H](CO)NC(=O)CNC(=O)[C@H](CCC(=O)O)NC(=O)C(C)(C)NC(=O)[C@@H](N)Cc1c[nH]cn1)[C@@H](C)O)C(=O)N[C@@H](C)C(=O)N[C@@](C)(Cc1ccccc1)C(=O)N[C@H](C(=O)N[C@H](C(=O)N[C@@](C)(CCCCN)C(=O)NCC(=O)NCC(N)=O)C(C)C)C(C)C` [compound 119] (H-H[Aib]EGS[αMeF]TSDK([AEEA-AEEA-γGlu-C18 diacid])[αMeS]S[αMeF]LEGEAA[αMeK]E[αMeF]IA[αMeF]VV[αMeK]GG-NH2; N-terminus assumed), the EC50 was 18 pM in experiment [1] (setting [4]); 15.7 pM in experiment [1] (setting [5]); 17 pM in experiment [1] (setting [6]); at least 25 nM in experiment [2] (setting [7]); at least 25.2 nM in experiment [2] (setting [8]); at least 25 nM in experiment [3] (setting [9]). Moreover, the EC50 in experiment [3] (setting [10]) is at least 25.2 nM; at GLP-1R (INS1e assay) (setting [11]) it was 2080 pM; on GLP-1R (INS1e assay) (setting [12]), 2710 pM; on GLP-1R (INS1e assay) (setting [13]), 1450 pM.
With `CCCCCCCCCCCC(=O)N[C@@H](CCC(=O)NCCOCCOCC(=O)NCCOCCOCC(=O)NCCCC[C@H](NC(=O)[C@H](CO)NC(=O)[C@](C)(CO)NC(=O)[C@@H](NC(=O)[C@H](CC(=O)O)NC(=O)[C@H](CO)NC(=O)[C@@H](NC(=O)[C@](C)(Cc1ccccc1)NC(=O)[C@H](CO)NC(=O)CNC(=O)[C@H](CCC(=O)O)NC(=O)C(C)(C)NC(=O)[C@@H](N)Cc1c[nH]cn1)[C@@H](C)O)C(C)C)C(=O)N[C@@H](CC(C)C)C(=O)N[C@@H](CCC(=O)O)C(=O)NCC(=O)N[C@@H](CCC(=O)O)C(=O)N[C@@H](C)C(=O)N[C@@H](C)C(=O)N[C@@](C)(CCCCN)C(=O)N[C@@H](CCCCNC(=O)COCCOCCNC(=O)COCCOCCNC(=O)CC[C@H](NC(=O)CCCCCCCCCCC)C(=O)O)C(=O)N[C@@H](Cc1ccccc1)C(=O)N[C@H](C(=O)N[C@@H](C)C(=O)N[C@@H](Cc1ccccc1)C(=O)N[C@@H](CCCCNC(=O)COCCOCCNC(=O)COCCOCCNC(=O)CC[C@H](NC(=O)CCCCCCCCCCC)C(=O)O)C(=O)N[C@H](C(=O)N[C@@H](CCC(=O)O)C(=O)NCC(=O)NCC(N)=O)C(C)C)[C@@H](C)CC)C(=O)O` [compound 482] (H-H[Aib]EGS[αMeF]TSDV[αMeS]SK([AEEA-AEEA-γGlu-Lauroyl])LEGEAA[αMeK]K([AEEA-AEEA-γGlu-Lauroyl])FIAFK([AEEA-AEEA-γGlu-Lauroyl])VEGG-NH2), the EC50 in experiment [1] (tris-lipidated peptides, mean of n1 and n2, read-out: Primary assay EC50 Mean pM GLP-1R) is 36.3 pM; in experiment [1] (tris-lipidated peptides, replicate n1, read-out: Primary assay EC50 GLP-1R n1), 28.3 pM; in experiment [1] (tris-lipidated peptides, replicate n2, read-out: Primary assay EC50 GLP-1R n2), 44.2 pM; in experiment [2] (tris-lipidated peptides, first replicate, read-out: Primary assay EC50 Gluc-R (n1)), 20 nM; in experiment [3] (tris-lipidated peptides, first replicate, read-out: Primary assay EC50 GIP-R (n1)), 20 nM; at GLP-1R (INS1e assay) (tris-lipidated peptides, mean of n1 and n2, read-out: INS1e assay EC50 Mean pM GLP-1R), 5860 pM. Also, the EC50 on GLP-1R (INS1e assay) (tris-lipidated peptides, replicate n1, read-out: INS1e assay EC50 GLP-1R n1) was determined as 8570 pM; at GLP-1R (INS1e assay) (tris-lipidated peptides, replicate n2, read-out: INS1e assay EC50 GLP-1R n2), 3150 pM.
